Measurements as given in the supplement of paper PMC10307832.

Key:
Experiment in all cases: relative viability (nuclei count vs DMSO), 5 days (fraction); higher = more cells survive
Shikonin + Decitabine = compound: CC(C)=CC[C@@H](O)C1=CC(=O)c2c(O)ccc(O)c2C1=O [Shikonin] + Nc1ncn([C@H]2C[C@H](O)[C@@H](CO)O2)c(=O)n1 [Decitabine] (partner 2 µM)
Procedure, shortened: (§1)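 After 5 days of treatment, lung cancer cells in 1536-well plates were fixed and stained in a single step (final 0.05% Triton X-100, 1% formaldehyde, 1 ug/ml Hoechst) and their nuclei counted on 4× images. Treatment had been applied by pin tool the day after seeding as one drug alone or as a fixed anchor-drug dose with five library-drug doses (not always all listed) in √10 steps. Relative viability is the nuclei count of treated wells divided by that of vehicle wells, and values are medians of duplicate plates.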

Shikonin + Palbociclib = compound: CC(C)=CC[C@@H](O)C1=CC(=O)c2c(O)ccc(O)c2C1=O [Shikonin] + CC(=O)c1c(C)c2cnc(Nc3ccc(N4CCNCC4)cn3)nc2n(C2CCCC2)c1=O [Palbociclib] (partner 0.5 µM)
Procedure, shortened: as §1

[1] = compound: CC(C)N(CCCNC(=O)Nc1ccc(C(C)(C)C)cc1)C[C@H]1O[C@@H](n2ccc3c(N)ncnc32)[C@H](O)[C@@H]1O + Cc1nc(NC(=O)N2CCC[C@H]2C(N)=O)sc1-c1ccnc(C(C)(C)C(F)(F)F)c1 [Alpelisib] (partner 2 µM)
Procedure, shortened: as §1

Shikonin + Dasatinib = compound: CC(C)=CC[C@@H](O)C1=CC(=O)c2c(O)ccc(O)c2C1=O [Shikonin] + Cc1nc(Nc2ncc(C(=O)Nc3c(C)cccc3Cl)s2)cc(N2CCN(CCO)CC2)n1 [Dasatinib] (partner 0.075 µM)
Procedure, shortened: as §1

## UMC-11
Shikonin + Decitabine; first compound 0.01 µM
  relative viability: 0.576
Shikonin + Decitabine; first compound 0.1 µM
  relative viability: 0.614
Shikonin + Decitabine; first compound 0.3162 µM
  relative viability: 0.665
Shikonin + Decitabine; first compound 1 µM
  relative viability: 0.74
Shikonin + Palbociclib; first compound 0.01 µM
  relative viability: 0.297
Shikonin + Palbociclib; first compound 0.1 µM
  relative viability: 0.351
Shikonin + Palbociclib; first compound 0.3162 µM
  relative viability: 0.335
Shikonin + Palbociclib; first compound 1 µM
  relative viability: 0.338
[1]; first compound 0.08 µM
  relative viability: 0.957
[1]; first compound 0.253 µM
  relative viability: 0.891
[1]; first compound 0.8 µM
  relative viability: 1.09
[1]; first compound 2.53 µM
  relative viability: 0.958
[1]; first compound 8 µM
  relative viability: 0.964
Shikonin + Dasatinib; first compound 0.01 µM
  relative viability: 0.476
Shikonin + Dasatinib; first compound 0.1 µM
  relative viability: 0.49
Shikonin + Dasatinib; first compound 0.3162 µM
  relative viability: 0.459
Shikonin + Dasatinib; first compound 1 µM
  relative viability: 0.503
